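Method: 48-hour compound exposure of cells in 96-well plates, five concentrations, linear interpolation of endpoints. GI50 marks 50% less growth.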 Activity calls are given as the source filed them. Rule as the data show it: active = GI50 up to about 1.1 µM and inactive = higher.
What was measured:
Assay in all cases: NCI anticancer screen, dose series, 48 h
786-0 = test system: 786-0
A498 = test system: A498
A549 = test system: A549
ACHN = test system: ACHN
CAKI-1 = test system: CAKI-1
CCRF-CEM = test system: CCRF-CEM
COLO 205 = test system: COLO 205
DLD-1 = test system: DLD-1
DMS-114 = test system: DMS-114
DMS-273 = test system: DMS-273
DU-145 = test system: DU-145
EKVX = test system: EKVX
HCC 2998 = test system: HCC 2998
HCT-116 = test system: HCT-116
HCT-15 = test system: HCT-15
HL-60 = test system: HL-60
HOP-18 = test system: HOP-18
HOP-62 = test system: HOP-62
HOP-92 = test system: HOP-92
HT-29 = test system: HT-29
IGROV-1 = test system: IGROV-1
K562 = test system: K562
KM-20L2 = test system: KM-20L2
KM12 = test system: KM12
LOX IMVI = test system: LOX IMVI
LXFL 529 = test system: LXFL 529
M14 = test system: M14
M19-MEL = test system: M19-MEL
MOLT-4 = test system: MOLT-4
Malme-3M = test system: Malme-3M
NCI-H226 = test system: NCI-H226
NCI-H23 = test system: NCI-H23
NCI-H460 = test system: NCI-H460
NCI-H522 = test system: NCI-H522
OVCAR-3 = test system: OVCAR-3
OVCAR-4 = test system: OVCAR-4
OVCAR-5 = test system: OVCAR-5
OVCAR-8 = test system: OVCAR-8
RPMI-8226 = test system: RPMI-8226
RXF 393 = test system: RXF 393
SF-268 = test system: SF-268
SF-295 = test system: SF-295
SF-539 = test system: SF-539
SK-MEL-28 = test system: SK-MEL-28
SK-MEL-2 = test system: SK-MEL-2
SK-MEL-5 = test system: SK-MEL-5
SK-OV-3 = test system: SK-OV-3
SN12C = test system: SN12C
SNB-19 = test system: SNB-19
SNB-75 = test system: SNB-75
SNB-78 = test system: SNB-78
SR = test system: SR
SW-620 = test system: SW-620
TK-10 = test system: TK-10
U-251 = test system: U-251
UACC-257 = test system: UACC-257
UACC-62 = test system: UACC-62
UO-31 = test system: UO-31
XF498 = test system: XF498
RXF 631 = test system: RXF 631
BT-549 = test system: BT-549
Hs-578T = test system: Hs-578T
MCF7 = test system: MCF7
MDA-MB-231 = test system: MDA-MB-231
MDA-MB-435 = test system: MDA-MB-435
MDA-N = test system: MDA-N
NCI/ADR-RES = test system: NCI/ADR-RES
PC-3 = test system: PC-3
T47D = test system: T47D

CCN(CC)CCOc1ccc(/C=C(\C#N)c2ccc(OCCN(CC)CC)cc2)cc1
GI50 (786-0): 11.3 µM (inactive) | GI50 (A498): 16.9 µM (inactive) | GI50 (A549): 19.1 µM (inactive) | GI50 (ACHN): 27.3 µM (inactive) | GI50 (CAKI-1): > 43.7 µM (inactive) | GI50 (CCRF-CEM): 3.44 µM (inactive) | GI50 (COLO 205): 10.8 µM (inactive) | GI50 (DLD-1): 19.5 µM (inactive) | GI50 (DMS-114): 10.8 µM (inactive) | GI50 (DMS-273): 13.6 µM (inactive) | GI50 (DU-145): 65.6 µM (inactive) | GI50 (EKVX): > 51.2 µM (inactive) | GI50 (HCC 2998): 15.7 µM (inactive) | GI50 (HCT-116): 5.87 µM (inactive) | GI50 (HCT-15): 14.5 µM | GI50 (HL-60): 4.84 µM (inactive) | GI50 (HOP-18): 25.6 µM (inactive) | GI50 (HOP-62): 10.6 µM (inactive) | GI50 (HOP-92): 16.9 µM (inactive) | GI50 (HT-29): 1.43 µM (inactive) | GI50 (IGROV-1): 22.7 µM (inactive) | GI50 (K562): 3.37 µM (inactive) | GI50 (KM-20L2): 1.56 µM (inactive) | GI50 (KM12): 10.7 µM (inactive) | GI50 (LOX IMVI): 12.6 µM (inactive) | GI50 (LXFL 529): 16.1 µM (inactive) | GI50 (M14): 7.64 µM (inactive) | GI50 (M19-MEL): 14.8 µM (inactive) | GI50 (MOLT-4): 9.12 µM (inactive) | GI50 (Malme-3M): 14.5 µM (inactive) | GI50 (NCI-H226): 39.4 µM (inactive) | GI50 (NCI-H23): 17.3 µM (inactive) | GI50 (NCI-H460): 18.1 µM (inactive) | GI50 (NCI-H522): 11.3 µM (inactive) | GI50 (OVCAR-3): 22.4 µM (inactive) | GI50 (OVCAR-4): 37.3 µM (inactive) | GI50 (OVCAR-5): 11.6 µM (inactive) | GI50 (OVCAR-8): 20.5 µM (inactive) | GI50 (RPMI-8226): 13 µM (inactive) | GI50 (RXF 393): 12.4 µM (inactive) | GI50 (SF-268): 19.1 µM (inactive) | GI50 (SF-295): 13.4 µM (inactive) | GI50 (SF-539): 7.64 µM (inactive) | GI50 (SK-MEL-28): 16.5 µM (inactive) | GI50 (SK-MEL-2): 21.4 µM (inactive) | GI50 (SK-MEL-5): 4.48 µM (inactive) | GI50 (SK-OV-3): 28.2 µM (inactive) | GI50 (SN12C): 45.1 µM (inactive) | GI50 (SNB-19): 36.4 µM (inactive) | GI50 (SNB-75): 16 µM (inactive) | GI50 (SNB-78): 20.5 µM (inactive) | GI50 (SR): 7.89 µM (inactive) | GI50 (SW-620): 15.3 µM (inactive) | GI50 (TK-10): > 59.7 µM (inactive) | GI50 (U-251): 13.5 µM (inactive) | GI50 (UACC-257): 16.9 µM (inactive) | GI50 (UACC-62): 16.6 µM (inactive) | GI50 (UO-31): 14.7 µM (inactive) | GI50 (XF498): 13.4 µM (inactive)

CC1(C)C2C/C(=C\c3ccccc3)C(=O)C1C2 (stereo unspecified)
GI50 (786-0): > 100 µM (inactive) | GI50 (A498): > 100 µM (inactive) | GI50 (A549): 93.5 µM (inactive) | GI50 (ACHN): > 100 µM (inactive) | GI50 (CAKI-1): > 100 µM (inactive) | GI50 (CCRF-CEM): > 100 µM (inactive) | GI50 (COLO 205): > 100 µM (inactive) | GI50 (DLD-1): 83.4 µM (inactive) | GI50 (DMS-114): 68.1 µM (inactive) | GI50 (DMS-273): > 100 µM (inactive) | GI50 (EKVX): 86.9 µM (inactive) | GI50 (HCC 2998): > 100 µM (inactive) | GI50 (HCT-116): 90.4 µM (inactive) | GI50 (HCT-15): > 100 µM | GI50 (HL-60): 35.9 µM (inactive) | GI50 (HOP-62): > 100 µM (inactive) | GI50 (HOP-92): > 100 µM (inactive) | GI50 (HT-29): 87.9 µM (inactive) | GI50 (IGROV-1): > 100 µM (inactive) | GI50 (K562): > 100 µM (inactive) | GI50 (KM12): > 100 µM (inactive) | GI50 (LOX IMVI): > 100 µM (inactive) | GI50 (LXFL 529): > 100 µM (inactive) | GI50 (M14): > 100 µM (inactive) | GI50 (M19-MEL): > 100 µM (inactive) | GI50 (MOLT-4): 56.9 µM (inactive) | GI50 (Malme-3M): > 100 µM (inactive) | GI50 (NCI-H23): 55.8 µM (inactive) | GI50 (NCI-H460): > 100 µM (inactive) | GI50 (NCI-H522): 40.9 µM (inactive) | GI50 (OVCAR-3): > 100 µM (inactive) | GI50 (OVCAR-4): > 100 µM (inactive) | GI50 (OVCAR-5): > 100 µM (inactive) | GI50 (OVCAR-8): > 100 µM (inactive) | GI50 (RPMI-8226): 61.8 µM (inactive) | GI50 (RXF 393): 27.6 µM (inactive) | GI50 (RXF 631): > 100 µM (inactive) | GI50 (SF-268): 79.8 µM (inactive) | GI50 (SF-295): > 100 µM (inactive) | GI50 (SF-539): > 100 µM (inactive) | GI50 (SK-MEL-28): 87.5 µM (inactive) | GI50 (SK-MEL-2): > 100 µM (inactive) | GI50 (SK-MEL-5): 45.5 µM (inactive) | GI50 (SK-OV-3): > 100 µM (inactive) | GI50 (SN12C): > 100 µM (inactive) | GI50 (SNB-19): > 100 µM (inactive) | GI50 (SNB-75): 25.1 µM (inactive) | GI50 (SNB-78): > 100 µM (inactive) | GI50 (SW-620): > 100 µM (inactive) | GI50 (TK-10): > 100 µM (inactive) | GI50 (U-251): > 100 µM (inactive) | GI50 (UACC-257): 58.1 µM (inactive) | GI50 (UACC-62): > 100 µM (inactive) | GI50 (UO-31): 31.1 µM (inactive)

COc1cccc2ccc3c(c12)C(=O)OC31CCc2c(C)cccc21 (stereo unspecified)
GI50 (786-0): 28.8 µM (inactive) | GI50 (A498): 7.41 µM (inactive) | GI50 (A549): 17.1 µM (inactive) | GI50 (ACHN): 8.04 µM (inactive) | GI50 (BT-549): > 100 µM (inactive) | GI50 (CAKI-1): 7.26 µM (inactive) | GI50 (CCRF-CEM): 24 µM (inactive) | GI50 (COLO 205): 22.6 µM (inactive) | GI50 (DLD-1): 8.79 µM (inactive) | GI50 (DMS-114): 8.67 µM (inactive) | GI50 (DMS-273): 6.81 µM (inactive) | GI50 (DU-145): 34.2 µM (inactive) | GI50 (EKVX): 27.1 µM (inactive) | GI50 (HCC 2998): 26.7 µM (inactive) | GI50 (HCT-116): 8.49 µM (inactive) | GI50 (HCT-15): 10.3 µM | GI50 (HL-60): 8.59 µM (inactive) | GI50 (HOP-18): > 31.6 µM (inactive) | GI50 (HOP-62): 18.5 µM (inactive) | GI50 (HOP-92): 11.2 µM (inactive) | GI50 (HT-29): 11.8 µM (inactive) | GI50 (Hs-578T): 38.5 µM (inactive) | GI50 (IGROV-1): 34.5 µM (inactive) | GI50 (K562): 7.91 µM (inactive) | GI50 (KM-20L2): 15 µM (inactive) | GI50 (KM12): 23.7 µM (inactive) | GI50 (LOX IMVI): 14.2 µM (inactive) | GI50 (LXFL 529): 15 µM (inactive) | GI50 (M14): 19.9 µM (inactive) | GI50 (M19-MEL): 15.5 µM (inactive) | GI50 (MCF7): 18 nM (active) | GI50 (MDA-MB-231): 36.1 µM (inactive) | GI50 (MDA-MB-435): 20.4 µM (inactive) | GI50 (MDA-N): 7.55 µM (inactive) | GI50 (MOLT-4): 13.2 µM (inactive) | GI50 (Malme-3M): 19.1 µM (inactive) | GI50 (NCI-H226): 12 µM (inactive) | GI50 (NCI-H23): 8.51 µM (inactive) | GI50 (NCI-H460): 10.6 µM (inactive) | GI50 (NCI-H522): 21.4 µM (inactive) | GI50 (NCI/ADR-RES): 13.4 µM (inactive) | GI50 (OVCAR-3): 10.3 µM (inactive) | GI50 (OVCAR-4): 15.2 µM (inactive) | GI50 (OVCAR-5): 26.5 µM (inactive) | GI50 (OVCAR-8): 15.8 µM (inactive) | GI50 (PC-3): 15.6 µM (inactive) | GI50 (RPMI-8226): 6.87 µM (inactive) | GI50 (RXF 393): 8.97 µM (inactive) | GI50 (SF-268): 30.3 µM (inactive) | GI50 (SF-295): 9.95 µM (inactive) | GI50 (SF-539): 31.3 µM (inactive) | GI50 (SK-MEL-28): 22.4 µM (inactive) | GI50 (SK-MEL-2): 32.1 µM (inactive) | GI50 (SK-MEL-5): 10.2 µM (inactive) | GI50 (SK-OV-3): > 46.5 µM (inactive) | GI50 (SN12C): 16.5 µM (inactive) | GI50 (SNB-19): 11.4 µM (inactive) | GI50 (SNB-75): 13.4 µM (inactive) | GI50 (SNB-78): 39.1 µM (inactive) | GI50 (SR): 7.16 µM (inactive) | GI50 (SW-620): 12.1 µM (inactive) | GI50 (T47D): 32.4 µM (inactive) | GI50 (TK-10): 23.1 µM (inactive) | GI50 (U-251): 23.2 µM (inactive) | GI50 (UACC-257): 23.4 µM (inactive) | GI50 (UACC-62): 11.6 µM (inactive) | GI50 (UO-31): 9.16 µM (inactive) | GI50 (XF498): 14.4 µM (inactive)

Reference: ChEMBL document CHEMBL1201862, “PubChem BioAssay data set” (2004)
